Molecular target: T1, USP8 Rhod domain (Homo sapiens, UniProt P40818)
T1 construct: USP8 Rhod (174–317) (UniProt: P40818); GST (cleaved yes); made in house; host or cells: Escherichia coli BL21-Gold (DE3)
T1 sequence (P40818 174-317): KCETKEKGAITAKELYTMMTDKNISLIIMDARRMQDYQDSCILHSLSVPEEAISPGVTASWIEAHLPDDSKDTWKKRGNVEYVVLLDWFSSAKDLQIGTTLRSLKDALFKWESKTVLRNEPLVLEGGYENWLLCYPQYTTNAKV
Assay: Peptide-phage display-based deep mutational scanning (DMS), USP8 Rhod domain
Assay type: binding
Settings: PSSM, library USP8_DMS, days 2,3; position 7
Description: Four rounds of phage selections were carried out using the second generation human disorderome library or the constructed deep mutational scanning library. At least three individual replicates were used for each bait protein. 10 µg of GST-tagged proteins or GST control (diluted in PBS from the stock of proteins kept in the purification elution buffer) were immobilized in 100 µL PBS on a 96-well MaxiSorp (Nunc) plate overnight at 4 °C. The plates were incubated with blocking buffer (with 0.5% BSA in PBS) for 1 h at 4 °C followed by washing with 0.05% Tween 20 in PBS four times. The naïve phage library (10^11 CFU) was diluted in 1/5th volume PEG/NaCl (20% PEG-8000, 0.4 M NaCl) and 1X PBS, incubated on ice for 10 min and centrifuged at 10,000 [drawing 3] g for 10 min. The pellet was resuspended in the volume of PBS (100 µL/ well). The GST-coated control plate was incubated with 100 µL library per well in PBS for 1 h at 4 °C to remove non-specific binders. The supernatant was transferred to the target wells and incubated for 2 h at 4 °C. The wells were washed five times with 0.05% Tween 20 in PBS and the bound phages were eluted with 100 µL per well log-phase E. coli OmniMAX by incubating at 37° C while shaking. After 30 min, M13KO7 helper phages were added and incubated for an additional 45 min. The bacterial cultures were transferred to 1 mL 2YT supplemented with 100 µg/mL carbenicillin, 30 µg/mL kanamycin and 0.3 mM IPTG and grew overnight at 37 °C while shaking. The following day the cultures were centrifuged for 10 min at 2,000 [drawing 4] g, 4 °C. 1/10th volume of 10 [drawing 5] PBS was added to adjust the pH and heated at 65 °C for 10 min. The phage pools from each round were used as in-phages for the next round of selections.
The samples were prepared for NGS as previously described. […] The PCR products were normalized with 25 µL Mag-bind Total Pure NGS beads (Omega Biotek) and 10 µL of each eluted sample (Qiagen Elution Buffer) was pooled and cleaned-up with a PCR purification kit (Qiagen). The PCR product was confirmed by 2% agarose electrophoresis and the band was extracted with QIAquick Gel extraction Kit (Qiagen) and eluted with 30 µL TE buffer. The dsDNA was quantified using QuantiT PicoGreen dsDNA Assay Kit (Thermo Fisher) and sent for NGS (Illumina MiSeq v3, 1 × 150 bp read setup, 20% PhiX, NGI SciLifeLab facility, Sweden). The NGS data were demultiplexed, adapter regions were trimmed and sequences with an average quality of at least 20 were translated to peptide sequences. The NGS data were analysed using custom Python scripts. The total read NGS counts for each selection experiment of each peptide sequence were compiled and annotated in PepTools (https://slim.icr.ac.uk/tools/peptools/). Since ProP-PD is in essence a competition assay, the possibility of the input phage library influencing the selection outcome was explored. […] Pearson correlation coefficient and p-value were calculated using Python’s SciPy library.

In the case of “KIAA1614_Q5VZ46_569_584 G7T (MERVLGTLSSPLRLLP; peptide 569-584; UniProt Q5VZ46 569-584, looked up, variant G7T)”, the “enrichment_relative_to_wt at position 7 (wt G)” value is reported as 30.

In the case of “KIAA1614_Q5VZ46_569_584 G7T (MERVLGTLSSPLRLLP; peptide 569-584; UniProt Q5VZ46 569-584, looked up, variant G7T)”, the “proportion of amino acid at position 7 (wt G)” value is reported as 0.46.

Same assay, conditions: PSSM, library USP8_DMS, days 2,3; position 10

“KIAA1614_Q5VZ46_569_584 S10E (MERVLGGLSEPLRLLP; UniProt Q5VZ46 569-584, looked up, variant S10E)” was tested, and the “enrichment_relative_to_wt at position 10 (wt S)” value was -77.

For “KIAA1614_Q5VZ46_569_584 S10E (MERVLGGLSEPLRLLP; UniProt Q5VZ46 569-584, looked up, variant S10E)”, the “proportion of amino acid at position 10 (wt S)” value was 0.00734.

Same assay, conditions: PSSM, library USP8_DMS, days 2,3; position 15

Going from “KIAA1614_Q5VZ46_569_584 L15I (MERVLGGLSSPLRLIP; UniProt Q5VZ46 569-584, looked up, variant L15I)” to “KIAA1614_Q5VZ46_569_584 L15V (MERVLGGLSSPLRLVP; UniProt Q5VZ46 569-584, looked up, variant L15V)”, the “enrichment_relative_to_wt at position 15 (wt L)” value rises from -277 to -151.

Compared with “KIAA1614_Q5VZ46_569_584 L15I (MERVLGGLSSPLRLIP; UniProt Q5VZ46 569-584, looked up, variant L15I)”, “KIAA1614_Q5VZ46_569_584 L15V (MERVLGGLSSPLRLVP; UniProt Q5VZ46 569-584, looked up, variant L15V)” is higher in “proportion of amino acid at position 15 (wt L)” value: 0.00349 for the first, 0.00642 for the second.

Same assay, conditions: ProP-PD DMS, bait USP8_Rhodanese__P40818_174_317; pair wild-type GMERVLGGLSSPLRLL (wt_00013) vs mutant; positive where wild-type fraction is higher, negative where mutant fraction is higher

Going from GMERVLGGLSSPHRLL to GMERVLGGLSSPSRLL, the hit_pair_ratio falls from 80.49 to 1.14.

Compared with GMERVLGGLSSPLMLL, GMERVLGGLISPLRLL is higher in hit_pair_ratio: -10.76 for the first, 321.97 for the second.

GMERVLGGLSSPLRIL and GMERVLGGLSYPLRLL are the same in hit_pair_ratio: 321.97 for the first, 321.97 for the second.

First: GMERVLGGLSSSLRLL
Second: GMERVLGGLHSPLRLL
The hit_pair_ratio of the first is higher: 8.62 for the first, 1.07 for the second.

Going from GMERVLGGLSSPLRLV to GMERVLGGLSSPRRLL, the hit_pair_ratio rises from 40.25 to 160.99.

Going from GMERVLGGLSSPLRLI to GMERVLGGGSSPLRLL, the hit_pair_ratio rises from 4.34 to 20.85.

First: GMERVLGGLVSPLRLL
Second: GMERVLGGYSSPLRLL
The hit_pair_ratio of the first is higher: 321.97 for the first, 32.92 for the second.

Going from GMERVLGGLSSPERLL to GMERVLGGLSSPLALL, the hit_pair_ratio falls from 4.36 to -3.54.

Compared with GMERVLGGLSSPGRLL, GMERVLGGLSSPLRLP is higher in hit_pair_ratio: 32.20 for the first, 160.99 for the second.

First: GMERVLGGLSSPLSLL
Second: GMERVLGGLSSPLRVL
The hit_pair_ratio of the first is lower: -1.20 for the first, 160.99 for the second.

Compared with GMERVLGGLSVPLRLL, GMERVLGGLSSPLRNL is higher in hit_pair_ratio: 93.45 for the first, 160.99 for the second.

Going from GMERVLGGLSSPLHLL to GMERVLGGLSSPPRLL, the hit_pair_ratio rises from 5.88 to 160.99.

Same assay, conditions: ProP-PD pairs, bait USP8_Rhodanese__P40818_174_317; wild-type/mutant pair, wild type KIAA1614 569-584 GMERVLGGLSSPLRLL (wt_00013)

Going from GMYRVLGGLSSPLRLL to GMERVLYGLSSPLRLL, the hit_pair_ratio falls from 17.24 to 2.20.

Going from VMERVLGGLSSPLRLL to GMERSLGGLSSPLRLL, the hit_pair_ratio falls from 53.66 to 12.88.

Compared with GMERVLGGTSSPLRLL, GMERVLGNLSSPLRLL is higher in hit_pair_ratio: -7.40 for the first, 160.99 for the second.

Compared with GPERVLGGLSSPLRLL, GAERVLGGLSSPLRLL is higher in hit_pair_ratio: -9.75 for the first, -2.65 for the second.

Compared with GMTRVLGGLSSPLRLL, RMERVLGGLSSPLRLL is lower in hit_pair_ratio: 23.00 for the first, 3.82 for the second.

First: GTERVLGGLSSPLRLL
Second: GWERVLGGLSSPLRLL
The hit_pair_ratio of the first is lower: -5.86 for the first, 3.37 for the second.

Compared with GMERELGGLSSPLRLL, GMERGLGGLSSPLRLL is higher in hit_pair_ratio: -10.69 for the first, -1.02 for the second.

Going from GMERVLAGLSSPLRLL to GLERVLGGLSSPLRLL, the hit_pair_ratio rises from -1.35 to 1.84.

First: GMERVLGGDSSPLRLL
Second: GMWRVLGGLSSPLRLL
The hit_pair_ratio of the first is lower: -19.26 for the first, 15.33 for the second.

Compared with GMERVVGGLSSPLRLL, LMERVLGGLSSPLRLL is lower in hit_pair_ratio: 321.97 for the first, 64.39 for the second.

First: GMERVLGDLSSPLRLL
Second: GMDRVLGGLSSPLRLL
The hit_pair_ratio of the first is higher: 321.97 for the first, -1.75 for the second.

First: GIERVLGGLSSPLRLL
Second: GRERVLGGLSSPLRLL
The hit_pair_ratio of the first is lower: -4.51 for the first, 1.40 for the second.

First: GMERRLGGLSSPLRLL
Second: GMERVNGGLSSPLRLL
The hit_pair_ratio of the first is lower: 16.75 for the first, 321.97 for the second.

Same assay, conditions: bait USP8_Rhodanese__P40818_174_317; wild-type/mutant pair ratio of averaged fractions; negative values where mutant fraction is higher

Compared with GLALWEAKMKQLAYRA, GLALWEAKMKQLAERV is lower in hit_pair_ratio: 208.81 for the first, -1.88 for the second.

Compared with GLALWEAKMKQLAEEA, GLALWEAKMKQLAVRA is higher in hit_pair_ratio: 15.47 for the first, 20.13 for the second.

Going from GLALWEAKMKYLAERA to GLALWEAKMKQFAERA, the hit_pair_ratio rises from 55.35 to 553.50.

Going from GLALWEAKMKQLAERP to GLALWEAKMKQLAEPA, the hit_pair_ratio falls from -3.73 to -18.07.

Going from GLALWEAKMKQLTERA to GLALWEAKMKQLAEWA, the hit_pair_ratio falls from 133.35 to 38.36.

Going from GLALWEAKMKQLDERA to GLALWEAKMKFLAERA, the hit_pair_ratio rises from 184.50 to 1107.01.

Compared with HMERVLGGLSSPLRLL, GLALWEAKMKQLPERA is higher in hit_pair_ratio: -2.43 for the first, 87.51 for the second.

Going from GLALWEAKMKQLAQRA to GLALWEAKMKQLAEGA, the hit_pair_ratio falls from 119.01 to 5.87.

Going from GLALWEAKMKQLAERD to GLALWEAKMKQLAERI, the hit_pair_ratio rises from -5.62 to -1.09.

First: GLALWEAKMEQLAERA
Second: GLALWEAKMKQLAELA
The hit_pair_ratio of the first is lower: -4.35 for the first, 11.23 for the second.

First: GLALWEAKMKQIAERA
Second: GLALWEAKMKQLKERA
The hit_pair_ratio of the first is higher: 1107.01 for the first, 184.50 for the second.

Going from GLALWEAKMKHLAERA to GLALWEAKMFQLAERA, the hit_pair_ratio rises from 17.96 to 59.51.

Compared with GLALWEAKMKQLATRA, GLALWEAKMKQLAERT is lower in hit_pair_ratio: 553.50 for the first, 1.21 for the second.

Same assay, conditions: wild type/mutant pair; bait USP8_Rhodanese__P40818_174_317; vs hit_library_peptide_wt GLALWEAKMKQLAERA; negative where mutant fraction exceeds wild type; ProP-PD pairs (sheet S7.B)

Going from GLHLWEAKMKQLAERA to GLALWEAKRKQLAERA, the hit_pair_ratio falls from 553.50 to 44.28.

Compared with GSALWEAKMKQLAERA, GLALWEAKTKQLAERA is lower in hit_pair_ratio: 417.62 for the first, 26.45 for the second.

Going from GLALWEAKIKQLAERA to ELALWEAKMKQLAERA, the hit_pair_ratio falls from 101.08 to 75.56.

Going from GLPLWEAKMKQLAERA to GPALWEAKMKQLAERA, the hit_pair_ratio rises from 10.62 to 1107.01.

First: GLMLWEAKMKQLAERA
Second: GLLLWEAKMKQLAERA
The hit_pair_ratio of the first is lower: 20.89 for the first, 1107.01 for the second.

Compared with GLALREAKMKQLAERA, GHALWEAKMKQLAERA is lower in hit_pair_ratio: 303.23 for the first, 175.67 for the second.

Going from GLALWEGKMKQLAERA to GLFLWEAKMKQLAERA, the hit_pair_ratio rises from 68.11 to 1107.01.

Going from GLANWEAKMKQLAERA to GLALPEAKMKQLAERA, the hit_pair_ratio rises from 4.24 to 110.70.

Compared with GLAEWEAKMKQLAERA, GLALWEWKMKQLAERA is lower in hit_pair_ratio: 52.71 for the first, 23.98 for the second.

Compared with GLALWEFKMKQLAERA, GLQLWEAKMKQLAERA is lower in hit_pair_ratio: 1107.01 for the first, -1.71 for the second.

Going from GLALWEAKPKQLAERA to GLAVWEAKMKQLAERA, the hit_pair_ratio falls from 195.90 to -2.03.

Compared with GYALWEAKMKQLAERA, GLALWERKMKQLAERA is higher in hit_pair_ratio: 276.75 for the first, 1107.01 for the second.

GLALWEAEMKQLAERA and GLALWELKMKQLAERA are the same in hit_pair_ratio: 1107.01 for the first, 1107.01 for the second.

Compared with GLATWEAKMKQLAERA, GAALWEAKMKQLAERA is higher in hit_pair_ratio: 8.05 for the first, 1107.01 for the second.

Compared with GLTLWEAKMKQLAERA, GLALWEAKNKQLAERA is higher in hit_pair_ratio: 92.62 for the first, 276.75 for the second.

With GLALWEAKVKQLAERA the hit_pair_ratio was 369.00.

— paper PMC12057046, “Elucidation of short linear motif-based interactions of the MIT and rhodanese domains of the ubiquitin-specific protease 8” (Biology Direct, 2025)
